Consider eight molecules from US5891882A, “Benzopyranopyrrole and benzopyranopyridine α-1 adenergic compounds” (priority 1997, dated 1999).

One may read the Ki as the equilibrium dissociation constant of an inhibitor or competing ligand from its target. A lower Ki goes with higher affinity.

SMILES strings stand for the structures. Where a name gives a salt, the structure may show the parent alone.

The target of data set [1] is T1, α-1 Adrenoceptors (Rat Aorta) (Rattus norvegicus, UniProt P23944).
T1 construct: Rat Aorta; from tissue; host or cells: rat aorta
T1 sequence (P23944 1-561): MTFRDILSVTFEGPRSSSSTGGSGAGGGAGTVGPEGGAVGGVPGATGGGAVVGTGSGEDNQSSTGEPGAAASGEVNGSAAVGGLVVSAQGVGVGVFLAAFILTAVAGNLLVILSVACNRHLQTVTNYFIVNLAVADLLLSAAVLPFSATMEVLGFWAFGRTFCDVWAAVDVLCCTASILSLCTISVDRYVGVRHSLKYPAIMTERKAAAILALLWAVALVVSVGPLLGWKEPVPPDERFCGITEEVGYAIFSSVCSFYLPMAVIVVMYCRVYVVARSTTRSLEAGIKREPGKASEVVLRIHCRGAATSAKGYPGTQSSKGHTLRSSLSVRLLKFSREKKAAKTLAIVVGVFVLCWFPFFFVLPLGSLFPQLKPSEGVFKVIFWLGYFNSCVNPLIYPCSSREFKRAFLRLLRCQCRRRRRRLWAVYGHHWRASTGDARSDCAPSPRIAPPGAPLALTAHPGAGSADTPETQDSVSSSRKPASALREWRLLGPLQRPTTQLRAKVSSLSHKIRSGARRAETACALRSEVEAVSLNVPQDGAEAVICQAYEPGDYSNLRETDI
In words: Functional antagonism at α-1 adrenoceptors, rat aorta. The data set is classed as cell-based. The source says:
(§1) Functional assays indicative of pharmacologically defined α-1 adrenoreceptors were used to further characterize compounds. Inhibition of phenylephrine (PE)-induced contraction of canine prostate smooth muscle can be correlated with α-1A adrenoreceptor activation. […] For each of these models, agonist dose response curves were repeated against increasing concentrations of test agent to derive a Schild plot [log ([…]) against log (molarity of test agent)] to determine the pA2.

Data set [2] concerns the target T2, α-1A adrenoreceptor (rat vas deferens) (Rattus norvegicus, UniProt P43140).
T2 construct: from tissue; host or cells: rat vas deferens
T2 sequence (P43140 1-466): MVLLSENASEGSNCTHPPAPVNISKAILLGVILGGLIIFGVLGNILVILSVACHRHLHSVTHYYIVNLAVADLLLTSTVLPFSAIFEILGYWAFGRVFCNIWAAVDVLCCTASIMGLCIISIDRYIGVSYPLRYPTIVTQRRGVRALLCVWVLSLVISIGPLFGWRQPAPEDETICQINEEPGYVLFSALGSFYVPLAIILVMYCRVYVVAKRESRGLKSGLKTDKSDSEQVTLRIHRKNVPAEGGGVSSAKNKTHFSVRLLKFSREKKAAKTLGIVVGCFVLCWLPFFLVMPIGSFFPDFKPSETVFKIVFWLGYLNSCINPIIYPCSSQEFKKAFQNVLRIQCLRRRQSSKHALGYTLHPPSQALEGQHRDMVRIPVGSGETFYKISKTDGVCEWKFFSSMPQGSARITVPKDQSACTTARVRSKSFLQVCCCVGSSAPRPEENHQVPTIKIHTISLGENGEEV
Put plainly: Functional antagonism: inhibition of phenylephrine-induced contraction of rat vas deferens. The data set is classed as cell-based. Conditions: rat vas deferens, phenylephrine-induced contraction, Schild plot.
Text: as §1

The target in data set [3] is T3, α-1d adrenoreceptor (rat) (Rattus norvegicus, UniProt P23944).
T3 construct: expressed in transfected cells; cDNA from TULCO; membranes
T3 sequence (P23944 1-561): T1 sequence (P23944 1-561)
Put plainly: In vitro [3H]-prazosin radioligand binding, cloned α-1d adrenoreceptor expressed in LTK cells. On the procedure: (§2) Additionally, binding affinity against the pharmacologically defined α-1A adrenoreceptor (rat submaxillary gland) was measured.
(§3) The cDNA clones encoding the α-1 adrenoreceptors (α-1a, α-1b, and α-1d) were obtained from TULCO (Triangle Universities Licensing Consortium, Research Triangle Park, N.C.) and inserted into the eukaryotic expression vector SnaB30. In this vector, expression of the adrenoreceptor gene is under the transcriptional control of an SV40 early promoter. Positive drug selection is provided by a neomycin-resistance gene. Mouse fibroblast cells (LTK) were transfected with the α1 expression plasmids and grown in Dulbecco's modified Eagle's medium (DMEM) containing 10% fetal calf serum and […]. Stable G418-resistant parental lines were generated, with successful expression of adrenoreceptor protein monitored using radioligand binding techniques. Stable single cell clones derived from the parental lines were screened in adrenoreceptor binding assays to identify clones having high adrenoreceptor density. Roller bottle cultures of the cloned lines were used to provide cell membranes for subsequent adrenoreceptor binding characterization studies. A cell line containing the SnaB30 vector expressing the human erythropoietin gene served as a negative control.
(§4) For adrenoreceptor binding assays, large scale membrane preparations were utilized in which 6 million cells were seeded into small (450 cm^2) Corning tissue culture roller bottles. 200 mL of DMEM containing 10% fetal calf serum and 300 μM G418 were added to each roller bottle. A 95% air/5% CO2 gas mixture (sterile) was injected into each roller bottle prior to sealing. The bottles were then incubated at 37° C. on a roller rack for 5 days. Cells were re-fed with fresh medium after 3 days in culture.
(§5) On the fifth day of culture, growth medium was removed from cells grown in roller bottles, and the cells were washed twice with PBS (Sigma, 120 mM NaCl, 2.7 mM KCl, 10 mM Na2 HPO4 --NaH2 PO4, pH=7.4). Cells were detached from the roller bottles by incubating for 15 minutes at 37° C. in a Tris-EDTA solution (10 mM Tris, 100 mM NaCl, 1 mM EDTA, pH=7.4). The cell suspension from each roller bottle was decanted into tared centrifuge tubes and kept on ice. An aliquot of each cell suspension was generally taken for cell counting. Cells were centrifuged at 3000×G for 5 min at 2°-4° C., washed with PBS and recentrifuged. The supernatant was decanted and the pellet weighed to determine the wet weight of cells. Cells were washed a final time in 40 vol 5 mM Tris-HCl, 5 mM EDTA, pH=7.7, and centrifuged at 40,000×G for 10 minutes. Cells were homogenized in 10 mL of 50 mM Tris-HCl, 5 mM EDTA (pH=7.4) and diluted to 40 mL/tube. Homogenates were centrifuged at 40,000×G for 10 minutes. The supernatant was decanted and the pellets rehomogenized in 50 mM Tris-HCl (pH=7.4) and centrifuged as before. The supernatant was decanted and the homogenate resuspended in 6.25 volumes (per gram wet weight) of 50 mM Tris-HCl and aliquots of the pooled homogenates frozen in liquid N2 and stored at -70° C. until the time of assay. Rat submaxillary glands were used for α-1A adrenoreceptors and were prepared essentially as described (Michel, A. D., Loury, D. N. and Whiting, R. L., Brit. J. Pharmacol. 98: 83-889 (1989)).
(§6) Receptor binding assays for α-1 adrenoreceptors were performed essentially as described by Greengrass and Bremner (Eur. J. Pharmacol. 55: 323-326 (1979)). […] Radioactivity was determined by standard liquid scintillation techniques. Data were analyzed as previously described (Hancock, A. A., Kyncl, J. J., Martin, Y. C. and DeBernardis, J. F., J Receptor Res. 8: 23-46 (1988)).

The target in data set [4] is T4, α-1A adrenoreceptor (rat submaxillary gland) (Rattus norvegicus, UniProt P43140).
T4 construct: Rat submaxillary glands were used for α-1A adrenoreceptors; from tissue; host or cells: rat submaxillary gland membranes
T4 sequence (P43140 1-466): T2 sequence (P43140 1-466)
In words: In vitro [3H]-prazosin radioligand binding, pharmacologically defined α-1A adrenoreceptor (rat submaxillary gland). On the procedure: as §2, §5, §6

Data set [5] addresses T5, α-1a adrenoreceptor (bovine) (Bos taurus, UniProt P18130).
T5 construct: expressed in transfected cells; cDNA from TULCO; membranes
T5 sequence (P18130 1-466): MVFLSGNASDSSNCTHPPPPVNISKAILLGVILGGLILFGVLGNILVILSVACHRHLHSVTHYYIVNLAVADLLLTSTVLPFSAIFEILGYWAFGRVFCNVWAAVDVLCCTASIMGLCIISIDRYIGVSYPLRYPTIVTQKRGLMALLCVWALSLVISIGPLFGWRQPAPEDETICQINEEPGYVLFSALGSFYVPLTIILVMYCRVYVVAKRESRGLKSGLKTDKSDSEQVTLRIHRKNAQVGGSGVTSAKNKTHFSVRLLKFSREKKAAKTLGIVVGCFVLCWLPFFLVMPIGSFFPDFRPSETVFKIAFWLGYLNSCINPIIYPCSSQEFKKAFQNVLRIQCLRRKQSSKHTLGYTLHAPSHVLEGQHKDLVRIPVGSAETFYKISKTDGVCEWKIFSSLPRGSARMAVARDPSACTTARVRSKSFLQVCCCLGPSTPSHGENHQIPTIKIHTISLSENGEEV
Put plainly: In vitro [3H]-prazosin radioligand binding, cloned α-1a adrenoreceptor expressed in LTK cells.
Text: as §3, §4, §5, §6

The target of data set [6] is T6, α-1b adrenoreceptor (hamster) (Mesocricetus auratus, UniProt P18841).
T6 construct: expressed in transfected cells; cDNA from TULCO; membranes
T6 sequence (P18841 1-515): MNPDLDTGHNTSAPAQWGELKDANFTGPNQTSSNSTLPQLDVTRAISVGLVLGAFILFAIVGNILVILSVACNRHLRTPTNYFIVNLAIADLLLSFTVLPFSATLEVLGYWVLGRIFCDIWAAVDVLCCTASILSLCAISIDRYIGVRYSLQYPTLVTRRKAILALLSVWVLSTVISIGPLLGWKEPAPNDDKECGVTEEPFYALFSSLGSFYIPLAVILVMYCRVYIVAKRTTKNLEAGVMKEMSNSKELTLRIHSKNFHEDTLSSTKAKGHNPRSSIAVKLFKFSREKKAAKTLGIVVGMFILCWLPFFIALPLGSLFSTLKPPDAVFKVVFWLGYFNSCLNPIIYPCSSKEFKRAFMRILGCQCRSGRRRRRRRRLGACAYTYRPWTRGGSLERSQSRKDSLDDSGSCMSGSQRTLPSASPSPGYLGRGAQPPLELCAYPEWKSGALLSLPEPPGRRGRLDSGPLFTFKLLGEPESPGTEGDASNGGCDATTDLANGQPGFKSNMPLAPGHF
Put plainly: In vitro [3H]-prazosin radioligand binding, cloned α-1b adrenoreceptor expressed in LTK cells.
Text: as §3, §4, §5, §6

Data set [7] has as its system α-1 adrenoreceptor. Conditions: cited from earlier work; for dose limiting side effects: BPH treatment; for urinary flow rates and subjective symptom scores: longer term studies, BPH; for clinical efficacy in BPH: non-selective α-1 blockers.

With `COc1cccc2c1[C@@H]1CN(CCCCn3c(=O)[nH]c4c(sc5cnccc54)c3=O)C[C@H]1CO2` [Example 42, hydrochloride], the Kb in data set [1] (read-out: In Vitro Characterization (pA2) Rat Aorta (converted)) is 0.0389 nM. Besides, the “In Vitro Characterization (pA2) Rat Vas” value in data set [2] is given as 9.59.

`COc1cc2[nH]c(=O)n(CCCCN3CC[C@H]4c5c(OC)cccc5OC[C@@H]4C3)c(=O)c2cc1OC` (relative stereo) [Example 86, 3-[4-((±)-trans-10-Methoxy-1,3,4,4a,5,10b-hexahydro-2H-[1]-benzopyrano[3,4-c]pyrido-3-yl)butyl]-6,7-dimethoxy-quinazoline-2,4(1H,3H)-dione hydrochloride]: the inhibition constant Ki in data set [3] worked out at 0.398 nM; in data set [4], 0.54 nM; in data set [5], 0.202 nM; in data set [6] it was 1.71 nM.

For `COc1cccc2c1[C@@H]1CCN(CCn3c(=O)[nH]c4c(sc5ccccc54)c3=O)C[C@H]1CO2` (relative stereo) [Example 90, 3-[2-((±)-trans-10-Methoxy-1,3,4,4a,5,10b-hexahydro-2H-[1]-benzopyrano[3,4-c]pyrido-3-yl)ethyl]-[1]-benzthieno[3,2-d]pyrimidine-2,4(1H,3H)-dione hydrochloride], the Ki in data set [3] was determined as 0.439 nM; in data set [4], 0.323 nM; in data set [5], 0.135 nM; in data set [6], 2.29 nM.

Turning to `COc1cc2nc(N3CCN(C(=O)C4COc5ccccc5O4)CC3)nc(N)c2cc1OC` (centres unmarked) [Doxazosin, doxazosin], in data set [7], the “dose limiting side effects” value was “hypotension, dizziness, and muscle fatigue”; the “urinary flow rates and subjective symptom scores” value was “significant improvements in urinary flow rates and subjective symptom scores”; the “clinical efficacy in BPH” value is “Clinical efficacy”.

As for `COc1cccc2c1[C@@H]1CCN(CCCn3c(=O)[nH]c4c(sc5ncccc54)c3=O)C[C@H]1CO2` (relative stereo) [Example 84, 3-[3-(±)-trans-10-Methoxy-1,3,3,4a,5,10b-hexahydro-2H-[1]-benzopyrano[3,4-c]pyrido-3-yl)propyl]-pyrido[3',2':4,5]thieno[3,2-d]pyrimidine-2,4(1H,3H)-dione hydrochloride], the Ki worked out at 1.12 nM in data set [3], 0.479 nM in data set [4], 0.617 nM in data set [5] and 4.92 nM in data set [6].

In the case of `COc1cc2nc(N3CCN(C(=O)C4CCCO4)CC3)nc(N)c2cc1OC` (centres unmarked) [Terazosin, terazosin], the “In Vitro Characterization (pA2) Rat Aorta” value in data set [1] is given as 8.65. For the same molecule, in data set [7], the “dose limiting side effects” value is “hypotension, dizziness, and muscle fatigue”; the “urinary flow rates and subjective symptom scores” value was “significant improvements in urinary flow rates and subjective symptom scores”; the “clinical efficacy in BPH” value is “Clinical efficacy”.

On to `COc1cccc2c1[C@@H]1CCN(CCCn3c(=O)[nH]c4c(sc5ccccc54)c3=O)C[C@H]1CO2` (relative stereo) [Example 89, 3-[3-((±)-trans-10-Methoxy-1,3,4,4a,5,10b-hexahydro-2H-[1]-benzopyrano[3,4-c]pyrido-3-yl)propyl]-[1]-benzthieno[3,2-d]pyrimidine-2,4(1H,3H)-dione hydrochloride], for which the Ki in data set [3] was determined as 0.061 nM; in data set [4] it was 0.133 nM; in data set [5], 0.038 nM; in data set [6], 0.111 nM.

For `COc1cc2[nH]c(=O)n(CCCCN3C[C@@H]4COc5cccc(OC)c5[C@H]4C3)c(=O)c2cc1OC` (racemic) [Example 82, 3-[4-((±)-trans-9-Methoxy-1,2,3,3a,4,9b-hexahydro-[1]-benzopyrano[3,4-c]pyrrol-2-yl)butyl]-6,7-dimethoxy-quinazoline-2,4(1H,3H)-dione dihydrochloride], the Ki in data set [3] was determined as 1.58 nM; in data set [4] it was 0.577 nM; in data set [5], 0.361 nM; in data set [6], 4.9 nM.
